Assay results from US20220265668A1, “TREATMENT AND/OR PREVENTION OF LESIONS IN THE CENTRAL AUDITORY NERVOUS SYSTEM” (SENSORION, priority 2019, published 2022).

Tests used:
[1] = system: young adult NMRI mice having undergone an acoustic trauma; assay: Frequency specific ABR thresholds after noise trauma; format: in vivo; settings: 26.4 mg/kg peroral once daily for 14 days after noise trauma (4-20 kHz, 115 dB SPL, 3 h); compared to placebo; FIG. 1
Protocol: 12 animals per group (young adult Naval Medical Research Institute (NMRI) mice), 96 animals in total.
Frequency specific ABR-thresholds at 4; 8; 12; 16; 20; 24; 28; 32 kHz under anesthesia (Ketamine/Xylazine). At least 3 measurements per frequency were performed.
(§1) Noise application was performed for 3 h under anesthesia, using a broad band noise 4-20 kHz, 115 dB SPL, free-field.
(§2) Post-traumatic (0; 24 h; 48 h or 72 h after noise exposure) initiation of oral administration of 26.4 mg/kg (R)-azasetron besylate or of the related placebo formulation, respectively, was performed once daily. Treatments were continued daily for 14 days. • Treatment (T) group 1 +Placebo (P) group 1: Treatment from d1-d14 • Treatment (T) group 2 +Placebo (P) group 2: Treatment from d2-d15 • Treatment (T) group 3 +Placebo (P) group 3: Treatment from d3-d16 • Treatment (T) group 4 +Placebo (P) group 4: Treatment from d4-d17

[2] = system: outer hair cells (OHC) in the cochlea; assay: Cochlear hair cell loss (cochleogram) after noise trauma; format: in vivo, mice; settings: 26.4 mg/kg peroral once daily for 14 days after noise trauma; at growing distances from the apex; vs placebo; FIG. 2
Protocol: as §1, §2
(§3) Six animals per group (48 in total) have been perfused via the left hearth chamber with a fixative solution (paraformaldehyde (4%)) on day 15.
(§4) Cochleae and brains were prepared (cutting, staining), as disclosed in Gröschel et al. (2010).

[3] = system: neuronal cells in the ventral cochlear nucleus (VCN); assay: Neuronal cell density in the ventral cochlear nucleus (VCN) after noise trauma; format: in vivo, mice
Protocol: as §1, §2, §3, §4

[4] = system: neuronal cells in the inferior colliculus (IC); assay: Neuronal cell density in the inferior colliculus (IC) after noise trauma; format: in vivo, mice; settings: 26.4 mg/kg peroral once daily for 14 days, initiated 0 h, 24 h, 48 h or 72 h after acoustic trauma; compared to placebo; FIG. 5
Protocol: as §1, §2, §3, §4

Row | Structure (SMILES) | threshold shift of the auditory brainstem response [1] | loss of outer hair cells (OHC) in the cochlea [2] | destruction of neuronal cells in the VCN (normalized cell densities per grid) ([3]; 26.4 mg/kg peroral once daily for 14 days, initiated immediately or 24/48/72 h after acoustic trauma, vs placebo, FIGS. 3 and 4) | destruction of neuronal cells in the IC (normalized cell densities per grid) [4] | loss of neurons in the brainstem ([3]; administration upon the onset of lesions after acoustic trauma, summary in discussion (VCN and IC))
1 | CN1C(=O)COc2c(C(=O)N[C@H]3CN4CCC3CC4)cc(Cl)cc21 [(R)-azasetron besylate] | does not significantly affect | affects the loss of outer hair cells | reduces the destruction of neuronal cells | reduces the destruction of neuronal cells | 
2 | CN1C(=O)COc2c(C(=O)NC3CN4CCC3CC4)cc(Cl)cc21 (centres unmarked) [azasetron, N-(1-azabicyclo[2.2.2]octan-8-yl)-6-chloro-4-methyl-3-oxo-1,4-benzoxazine-8-carboxamide, reference compound] |  |  |  |  | significantly reduce the loss of neurons
